Patent US9475802B2, “Inhibitors of viral replication, their process of preparation and their therapeutical uses” (LABORATOIRE BIODIM, priority 2012, dated 2016)

Test system: NL4-3 strain of HIV-1
Test: Inhibition of HIV replication: cyto-protection in Cell-Titer-Glo viability assay, MT4 cells infected with NL4-3 virus
Type: cell-based
Conditions: Human immunodeficiency virus 1, NL43, 120 h, concentration leading to 50% of cyto-protection, 5 days incubation, CellTiter-Glo luminescence
Protocol: The antiviral activity, particularly against HIV, of compounds according to the invention is evaluated by the protocol described below.
Preparation of Virus Stock of the NL4-3 Strain of HIV-1 (Adachi et al, J Virol, 1986, 59(2):284-91).
The virus was prepared as described in Lopez et al (Lopez et al, Proc Natl Acad Sci USA., 2006, 103(40):14947-52, by transfecting 2×10^6 293 T cells (CRL-1573, ATCC) with following modifications: 6 μg of NL4-3 proviral DNA molecular clone were mixed with Fugene 6 transfection reagent from Roche, and used according to manufacturer's instructions. Forty eight hours later, transfected cell supernatants were harvested, filtered through 0.45-μm-pore-size filters, quantified for HIV-1 p24 antigen by using a Innotest HIV antigen mAb assay (Ingen) according to manufacturer's instructions, and used in infection experiments.
Serial dilutions of compounds to be tested were prepared in complete RPMI medium from 10 mM DMSO stock solutions, and distributed in a volume of 20 μL in 96 well Falcon 353072 Microtest™ tissue culture plate, in order to get 0.5% DMSO final concentration in each well, after the addition of infected cells. Control wells contained also 0.5% DMSO final concentration but no compound.
MT^4 cells (from the NIH AIDS Research and Reference Reagent Program) in RPMI complete medium were counted (10×10^6 cells per well in Falcon 353047 Multiwell™ 24 well) and infected for 2 hours at 37°, at a multiplicity of infection (moi) of 0.0001-0.00001. Cells were then centrifuged 3 min at 3000 rpm, and washed two times in 1 ml PBS to remove viruses that have not entered in cells. Infected cells were resuspended in complete RPMI at 1.25×10^6 cells/ml, and 80 μl of infected cells were distributed in each well containing compounds to be tested or control wells. The plates were then incubated at 37° for 5 days.
Assay Used to Measure the Inhibition of HIV Replication by the Compounds (According to (According to Gregg S. Jones et al., Antimicrobial Agents and Chemotherapy, 2009, 53 (3): 1194-1203).
After 5 days of incubation, 50 μl of CellTiter-Glo reagent (Promega Biosciences, Inc., Madison Wis., USA) were added to each well. Cell lysis was carried out at room temperature during 10 min, 150 μl of lysates were transferred in Packard Optiplate 96 well, and luminescence was read on a Fluoroskan (Thermo Scientific).
The EC50, or effective concentration 50, is the concentration of compound leading to 50% of cyto-protection in a Cell-Titer-Glo® viability assay based on MT^4 cells infected with NL4-3 virus (table 1).

`CC(C)(C)OC(C(=O)O)c1c(C(F)(F)F)ccc(-c2ccccc2)c1-c1ccc2c(c1)CCCO2` (stereo not shown) [Example 1, 2-(tert-butoxy)-2-[2-(3,4-dihydro-2H-1-benzopyran-6-yl)-3-phenyl-6-(trifluoromethyl)phenyl]acetic acid] showed an EC50 of 260 nM.
`CC(C)(C)OC(C(=O)O)c1c(C(F)(F)F)ccc(-c2ccncc2)c1-c1ccc2c(c1)CCCO2` (stereo not shown) [Example 2, 2-(tert-butoxy)-2-[2-(3,4-dihydro-2H-1-benzopyran-6-yl)-3-(pyridin-4-yl)-6-(trifluoromethyl)phenyl]acetic acid] was tested, and the EC50 was 250 nM.
Compound `CC(C)(C)OC(C(=O)O)c1c(C(F)(F)F)ccc(C2=CCCC2)c1-c1ccc2c(c1)CCCO2` (stereo not shown) [Example 3, 2-(tert-butoxy)-2-[3-(cyclopent-1-en-1-yl)-2-(3,4-dihydro-2H-1-benzopyran-6-yl)-6-(trifluoromethyl)phenyl]acetic acid] has an EC50 of 400 nM.
`Cn1cc(-c2ccc(C(F)(F)F)c(C(OC(C)(C)C)C(=O)O)c2-c2ccc3c(c2)CCCO3)cn1` (stereo not shown) [Example 4, 2-(tert-butoxy)-2-[2-(3,4-dihydro-2H-1-benzopyran-6-yl)-3-(1-methyl-1H-pyrazol-4-yl)-6-(trifluoromethyl)phenyl]acetic acid] showed an EC50 of 120 nM.
`CC(C)(C)OC(C(=O)O)c1c(C(F)(F)F)ccc(-n2ccc(-c3ccccc3)n2)c1-c1ccc2c(c1)CCCO2` (stereo not shown) [Example 5, 2-(tert-butoxy)-2-[2-(3,4-dihydro-2H-1-benzopyran-6-yl)-3-(3-phenyl-1H-pyrazol-1-yl)-6-(trifluoromethyl)phenyl]acetic acid] showed an EC50 of 760 nM.
For `CC(C)(C)OC(C(=O)O)c1c(C(F)(F)F)ccc(-c2ccnc(OCc3ccccc3)c2)c1-c1ccc2c(c1)CCCO2` (stereo not shown) [Example 6, 2-{3-[2-(benzyloxy)pyridin-4-yl]-2-(3,4-dihydro-2H-1-benzopyran-6-yl)-6-(trifluoromethyl)phenyl}-2-(tert-butoxy)acetic acid], the EC50 was 260 nM.
In the case of `CC(C)(C)OC(C(=O)O)c1c(C(F)(F)F)ccc(-c2cccs2)c1-c1ccc2c(c1)CCCO2` (stereo not shown) [Example 7, 2-(tert-butoxy)-2-[2-(3,4-dihydro-2H-1-benzopyran-6-yl)-3-(thiophen-2-yl)-6-(trifluoromethyl)phenyl]acetic acid], the EC50 is reported as 300 nM.
Compound `COc1ccc(-c2ccc(C(F)(F)F)c(C(OC(C)(C)C)C(=O)O)c2-c2ccc3c(c2)CCCO3)cc1` (stereo not shown) [Example 8, 2-(tert-butoxy)-2-[2-(3,4-dihydro-2H-1-benzopyran-6-yl)-3-(4-methoxyphenyl)-6-(trifluoromethyl)phenyl]acetic acid] has an EC50 of 240 nM.
`CC(C)(C)OC(C(=O)O)c1c(C(F)(F)F)ccc(-n2cc(Br)cn2)c1-c1ccc2c(c1)CCCO2` (stereo not shown) [Example 9, 2-[3-(4-bromo-1H-pyrazol-1-yl)-2-(3,4-dihydro-2H-1-benzopyran-6-yl)-6-(trifluoromethyl)phenyl]-2-(tert-butoxy)acetic acid] showed an EC50 of 360 nM.
For `CC(C)(C)OC(C(=O)O)c1c(C(F)(F)F)ccc(-n2cc(Cl)cn2)c1-c1ccc2c(c1)CCCO2` (stereo not shown) [Example 10, 2-[3-(4-chloro-1H-pyrazol-1-yl)-2-(3,4-dihydro-2H-1-benzopyran-6-yl)-6-(trifluoromethyl)phenyl]-2-(tert-butoxy)acetic acid], the EC50 was 480 nM.
In the case of `CC1(C)CC=C(c2c(-c3ccncc3)ccc(C(F)(F)F)c2C(OC(C)(C)C)C(=O)O)CC1` (stereo not shown) [Example 11, 2-(tert-butoxy)-2-[2-(4,4-dimethylcyclohex-1-en-1-yl)-3-(pyridin-4-yl)-6-(trifluoromethyl)phenyl]acetic acid], the EC50 is reported as 910 nM.
Compound `CC(C)(C)OC(C(=O)O)c1c(C(F)(F)F)ccc(-c2cnn3ccccc23)c1-c1ccc2c(c1)CCCO2` (stereo not shown) [Example 12, 2-(tert-butoxy)-2-[2-(3,4-dihydro-2H-1-benzopyran-6-yl)-3-{pyrazolo[1,5-a]pyridin-3-yl}-6-(trifluoromethyl)phenyl]acetic acid] has an EC50 of 420 nM.
In the case of `CC(C)(C)OC(C(=O)O)c1c(C(F)(F)F)ccc(-c2ccc(C(N)=O)cc2)c1-c1ccc2c(c1)CCCO2` (stereo not shown) [Example 13, 2-(tert-butoxy)-2-[3-(4-carbamoylphenyl)-2-(3,4-dihydro-2H-1-benzopyran-6-yl)-6-(trifluoromethyl)phenyl]acetic acid], the EC50 is reported as 830 nM.
`CC(C)(C)OC(C(=O)O)c1c(C(F)(F)F)ccc(-c2cccc(C(N)=O)c2)c1-c1ccc2c(c1)CCCO2` (stereo not shown) [Example 14, 2-(tert-butoxy)-2-[3-(3-carbamoylphenyl)-2-(3,4-dihydro-2H-1-benzopyran-6-yl)-6-(trifluoromethyl)phenyl]acetic acid] gave an EC50 of 780 nM.
`Cn1cc(-c2ccc(C(F)(F)F)c(C(OC(C)(C)C)C(=O)O)c2C2=CCC(C)(C)CC2)cn1` (stereo not shown) [Example 15, 2-(tert-butoxy)-2-[2-(4,4-dimethylcyclohex-1-en-1-yl)-3-(1-methyl-1H-pyrazol-4-yl)-6-(trifluoromethyl)phenyl]acetic acid] showed an EC50 of 150 nM.
`CC(C)(C)OC(C(=O)O)c1c(C(F)(F)F)ccc(-c2ccncn2)c1-c1ccc2c(c1)CCCO2` (stereo not shown) [Example 16, 2-(tert-butoxy)-2-[2-(3,4-dihydro-2H-1-benzopyran-6-yl)-3-(pyrimidin-4-yl)-6-(trifluoromethyl)phenyl]acetic acid] gave an EC50 of 940 nM.
Work on `CC(C)(C)OC(C(=O)O)c1c(C(F)(F)F)ccc(-c2ccncc2F)c1-c1ccc2c(c1)CCCO2` (stereo not shown) [Example 17, 2-(tert-butoxy)-2-[2-(3,4-dihydro-2H-1-benzopyran-6-yl)-3-(3-fluoropyridin-4-yl)-6-(trifluoromethyl)phenyl]acetic acid] yielded an EC50 of 250 nM.
With `CNC(=O)c1ccc(-c2ccc(C(F)(F)F)c(C(OC(C)(C)C)C(=O)O)c2-c2ccc3c(c2)CCCO3)cc1` (stereo not shown) [Example 19, 2-(tert-butoxy)-2-[2-(3,4-dihydro-2H-1-benzopyran-6-yl)-3-[4-(methylcarbamoyl)phenyl]-6-(trifluoromethyl)phenyl]acetic acid] the EC50 was 330 nM.
For `CC(C)(C)OC(C(=O)O)c1c(C(F)(F)F)ccc(-c2ccc(N)cc2)c1-c1ccc2c(c1)CCCO2` (stereo not shown) [Example 20, 2-[3-(4-aminophenyl)-2-(3,4-dihydro-2H-1-benzopyran-6-yl)-6-(trifluoromethyl)phenyl]-2-(tert-butoxy)acetic acid], the EC50 was 150 nM.
Compound `CC(=O)Nc1ccc(-c2ccc(C(F)(F)F)c(C(OC(C)(C)C)C(=O)O)c2-c2ccc3c(c2)CCCO3)cc1` (stereo not shown) [Example 21, 2-(tert-butoxy)-2-[3-(4-acetamidophenyl)-2-(3,4-dihydro-2H-1-benzopyran-6-yl)-6-(trifluoromethyl)phenyl]acetic acid] has an EC50 of 170 nM.
With `CC(C)(C)OC(C(=O)O)c1c(C(F)(F)F)ccc(-c2cnn(CC(F)(F)F)c2)c1-c1ccc2c(c1)CCCO2` (stereo not shown) [Example 22, 2-(tert-butoxy)-2-{2-(3,4-dihydro-2H-1-benzopyran-6-yl)-3-[1-(2,2,2-trifluoroethyl)-1H-pyrazol-4-yl]-6-(trifluoromethyl)phenyl}acetic acid] the EC50 was 320 nM.
Work on `CC(C)(C)OC(C(=O)O)c1c(C(F)(F)F)ccc(-c2cccc(N)c2)c1-c1ccc2c(c1)CCCO2` (stereo not shown) [Example 23, 2-[3-(3-aminophenyl)-2-(3,4-dihydro-2H-1-benzopyran-6-yl)-6-(trifluoromethyl)phenyl]-2-(tert-butoxy)acetic acid] yielded an EC50 of 190 nM.
`CC(=O)Nc1cccc(-c2ccc(C(F)(F)F)c(C(OC(C)(C)C)C(=O)O)c2-c2ccc3c(c2)CCCO3)c1` (stereo not shown) [Example 24, 2-(tert-butoxy)-2-[3-(3-acetamidophenyl)-2-(3,4-dihydro-2H-1-benzopyran-6-yl)-6-(trifluoromethyl)phenyl]acetic acid] showed an EC50 of 290 nM.
Work on `CCCn1cc(-c2ccc(C(F)(F)F)c(C(OC(C)(C)C)C(=O)O)c2-c2ccc3c(c2)CCCO3)ccc1=O` (stereo not shown) [Example 25, 2-(tert-butoxy)-2-[2-(3,4-dihydro-2H-1-benzopyran-6-yl)-3-(6-oxo-1-propyl-1,6-dihydropyridin-3-yl)-6-(trifluoromethyl)phenyl]acetic acid] yielded an EC50 of 220 nM.
In the case of `CC(C)(C)OC(C(=O)O)c1c(C(F)(F)F)ccc(-c2ccc(=O)n(Cc3ccccc3)c2)c1-c1ccc2c(c1)CCCO2` (stereo not shown) [Example 26, 2-[3-(1-benzyl-6-oxo-1,6-dihydropyridin-3-yl)-2-(3,4-dihydro-2H-1-benzopyran-6-yl)-6-(trifluoromethyl)phenyl]-2-(tert-butoxy)acetic acid], the EC50 is reported as 440 nM.
